Measured values published in US10039828B2, “Compositions comprising salbutamol sulphate” (MEXICHEM AMANCO HOLDING S.A. DE C.V., priority 2011, dated 2018).
Values belong to the molecule of their own block, whether it stands above or below them.

Assay: apparent surfactant dissolution (solubility) in propellant, viewed with the naked eye
Type: physicochemical
Conditions: for Solubility of oleic acid in the propellant / Solubility of sorbitan monooleate in the propellant / Solubility of sorbitan trioleate in the propellant: ambient temperature (19.5-25.0° C.)
Method: A number of experiments were conducted to investigate the solubility of various surfactants in R-134a and R-152a. The apparent surfactant dissolution in each propellant was studied at ambient temperature (19.5-25.0° C.) by adding a known quantity of surfactant to a plastic-coated, pressure-resistant, clear glass aerosol bottle. A continuous flow valve was then crimped onto the bottle. A total of 10 grams of each propellant was filled into each aerosol bottle such that the surfactant concentration ranged from 0 to 5% w/w. After addition of propellant, the contents were sonicated for 10 mins and viewed with the naked eye for dissolution.

solubility in R-152a compared with R-134a (R-152a versus R-134a): much higher | solubility in R-152a compared with any other surfactant (R-152a, versus the other surfactants tested): much higher | Solubility of oleic acid in the propellant (propellant R-134a): Up to 0.05 % w/w | Solubility of oleic acid in the propellant (propellant R-152a): Up to 2.5 % w/w
Molecule: CCCCCCCC/C=C\CCCCCCCC(=O)O [oleic acid]

Solubility of sorbitan monooleate in the propellant (propellant R-134a): Up to 0.03 % w/w | Solubility of sorbitan monooleate in the propellant (propellant R-152a): Up to 0.05 % w/w
Molecule: sorbitan monooleate

Solubility of sorbitan trioleate in the propellant (propellant R-134a): Up to 0.05 % w/w | Solubility of sorbitan trioleate in the propellant (propellant R-152a): Up to 0.05 % w/w
Molecule: sorbitan trioleate
